Measurements taken from PubChem BioAssay (NCI).
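1) Cells in 96-well plates. 2) Compound, 48 h, 5 concentrations. 3) Linear interpolation between surrounding doses. 4) Unreached endpoint = highest concentration. TGI is the concentration that stops growth completely.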

Legend:
Assay in all cases: NCI anticancer screen, dose series, 48 h
DMS 114 small cell lung = system: DMS 114 small cell lung
DMS 273 small cell lung = system: DMS 273 small cell lung
HCT-116 colon = system: HCT-116 colon
HOP-18 NSCLC = system: HOP-18 NSCLC
KM20L2 colon = system: KM20L2 colon
M19-MEL melanoma = system: M19-MEL melanoma
MCF7 breast = system: MCF7 breast
NCI-H522 lung = system: NCI-H522 lung
NCI/ADR-RES ovarian = system: NCI/ADR-RES ovarian
SK-OV-3 ovarian = system: SK-OV-3 ovarian
SNB-78 CNS = system: SNB-78 CNS
XF 498 CNS = system: XF 498 CNS
ACHN renal = system: ACHN renal
BT-549 breast = system: BT-549 breast
DU-145 prostate = system: DU-145 prostate
MDA-MB-231 breast = system: MDA-MB-231 breast
MDA-MB-435 = system: MDA-MB-435
MDA-N = system: MDA-N
PC-3 prostate = system: PC-3 prostate
SR leukemia = system: SR leukemia

Measured: TGI

COc1nc(NC2OC(CO)C(O)C(O)C2O)c(N)c(=O)[nH]1 (centres undefined)
not listed: ACHN renal | BT-549 breast | DU-145 prostate | MDA-MB-231 breast | MDA-MB-435 | MDA-N | PC-3 prostate | SR leukemia
> 100 µM: all other assays above

COc1ccc(-c2c3c(nc4nc(SCC(=O)c5ccc(Br)cc5)nc(N)c24)CCCC3)cc1OC
not listed: DMS 114 small cell lung | DMS 273 small cell lung | HOP-18 NSCLC | KM20L2 colon | M19-MEL melanoma | NCI-H522 lung | SNB-78 CNS | XF 498 CNS
> 100 µM: all other assays above

COC(=O)Cc1c(C2C(CC(=O)OC)c3ccccc3N2C2OC(CO)C(O)C(O)C2O)[nH]c2ccccc12 (centres undefined)
> 100 µM: BT-549 breast | DU-145 prostate | HCT-116 colon | MDA-MB-231 breast | MDA-MB-435 | MDA-N | NCI-H522 lung | PC-3 prostate | SK-OV-3 ovarian | SR leukemia

O=C1CCC2COc3ccc(O)c1c32 (centres undefined)
> 100 µM: ACHN renal | DMS 114 small cell lung | DMS 273 small cell lung | HCT-116 colon | HOP-18 NSCLC | KM20L2 colon | M19-MEL melanoma | SK-OV-3 ovarian | SNB-78 CNS | XF 498 CNS
